The values below come from PMC10704561, “Multi-Photon-Sensitive Chromophore for the Photorelease of Biologically Active Phenols” (ACS Chemical Neuroscience, 2023).

The nature of series [1]: Spontaneous hydrolysis in the dark. The class given is physicochemical. The conditions noted are these: 0.1 mM in KMOPS pH 7.2, dark, 7 days. As for the experimental part: A 0.1 mM solution of each compound was prepared in KMOPS buffer. For compounds 3d and 6c, 20% CH3CN was used as a cosolvent. The solutions were kept in the dark for 7 days, and the percentage of the starting materials was determined by periodic HPLC analysis (Supporting Information, HPLC Data).

Series [2] can be described thus: Solubility in KMOPS buffer pH 7.2. The series is classed as physicochemical. The source says:
The photochemical and photophysical properties were investigated in a simulated physiological buffer (KMOPS, pH 7.2) and compared with the literature data for CyHQ-O-DA (Table 1). […] For this derivative, 10% CH3CN in the buffer was used to ensure complete solubilization for the photochemistry experiments. The spontaneous hydrolysis in the dark was monitored over a period of 7 days and no significant hydrolysis was detected for any of the constructs. The molar absorptivity at the wavelength used for 1PE photolysis (ε365) ranged between 4800 and 5670 M^–1 cm^–1, in line with the values of most CyHQ-based PPGs.
The photochemical behavior of constructs 4–7c was investigated in KMOPS buffer at the concentration of 0.1 mM. Under these conditions, all compounds were soluble except for the VNA analogue 6c, which, because of the lipophilicity of the vanilloid, required 20% CH3CN for full solubilization. The stability toward hydrolysis in the dark was monitored over a week, and no significant decomposition was detected for any probe. All constructs were successfully photolyzed after light exposure, as shown in the time courses of the photolysis reactions (Figure 3). MeO-CyHQ constructs 4c, 6c, and 7c were photoactivated with excellent quantum efficiency and sensitivities, and good chemical yields were obtained by monitoring the appearance of the released bioeffector over the time course of the photoreaction (Table 1). […] We believe this effect is due to the presence of the thiophene ring, a well-known photoactive group,[51] which could act as an energy sink in the excited state and quench the photochemical reaction.

A short description of series [3]: One-photon excitation (1PE) photolysis with 365 nm LED, HPLC quantification. The class given is physicochemical. Particulars: for t90% (time required to consume 90% of the starting material): 1PE 365 nm LED, lamp intensity differs per compound (Table S1). As for the experimental part:
A 0.1 mM solution (3 mL) of each protected phenol in KMOPS buffer (10 or 20% CH3CN was used as a cosolvent for 3d and 6c) was placed in a 3 mL quartz cuvette along with a stirring bar. The solution was irradiated with stirring using a 365 nm LED lamp (Cairn OptoLED Lite). At different time intervals, 80 μL aliquots of the solution were taken out and analyzed by uHPLC (Agilent 1290 Infinity series), monitoring the AUC at 320 nm (Supporting Information, HPLC Data). An external standard calibration method of quantification was used for the calibration of the samples. The experiments were repeated in sets of three. A gradient elution with a flux rate of 0.3 mL/min using a mobile phase comprising A = 0.1% trifluoroacetic acid in water and B = acetonitrile (starting from 5% B to 100% over 10 min and re-equilibrating to 5% B before the next run) was used for the separations. A comparison of the AUC with the calibration curves of the substrates (obtained from known concentration) determined the percentages of the remaining starting materials. The percentages of the remaining starting materials were plotted versus time. The time to 90% of decomposition of the substrate (t90% values) was obtained by fitting a single exponential decay curve to the data using DeltaGraph (Red Rock Software). The following equation was used to calculate the quantum yield (Φu) of each photolysis reaction:[42],[47],[56],[57] Φu = (I σ t90%)^−1, where I is the irradiation intensity (determined by potassium ferrioxalate actinometry and measured in Einstein cm^–2 s^–1),[58] σ is the decadic extinction coefficient (1000 × ε) at 365 nm, and t90% is the time required to consume 90% of the starting material. See Supporting Information Table S1 for the I, σ, and t90% data.

Series [4] is described as follows: UV-vis spectra and molar extinction coefficient in KMOPS buffer. The class given is physicochemical. The conditions noted are these: 0.1 mM in KMOPS buffer, pH 7.2 (3d, 6c: 10 or 20% CH3CN added). The protocol: A 100 μM solution of each protected phenol was prepared in KMOPS buffer (20% CH3CN was used as a cosolvent for compounds 3d and 6c). The UV–vis spectra of these solutions were recorded at between 250 and 500 nm. All of the measurements were repeated in triplicate, and the absorbance values were averaged. The Beer–Lambert law, ε = A(cl)^−1, was used for the calculation of ε values at λ = 365 nm, where A is the absorbance value measured at 365 nm, c is the concentration of the sample, and l is the cuvette length (1 cm). See the Supporting Information for the spectra.

For another series, the target named is T1, TRPV1 channels (Homo sapiens, UniProt Q8NER1).
T1 construct: expressed in transfected cells
T1 sequence (Q8NER1 whole entry): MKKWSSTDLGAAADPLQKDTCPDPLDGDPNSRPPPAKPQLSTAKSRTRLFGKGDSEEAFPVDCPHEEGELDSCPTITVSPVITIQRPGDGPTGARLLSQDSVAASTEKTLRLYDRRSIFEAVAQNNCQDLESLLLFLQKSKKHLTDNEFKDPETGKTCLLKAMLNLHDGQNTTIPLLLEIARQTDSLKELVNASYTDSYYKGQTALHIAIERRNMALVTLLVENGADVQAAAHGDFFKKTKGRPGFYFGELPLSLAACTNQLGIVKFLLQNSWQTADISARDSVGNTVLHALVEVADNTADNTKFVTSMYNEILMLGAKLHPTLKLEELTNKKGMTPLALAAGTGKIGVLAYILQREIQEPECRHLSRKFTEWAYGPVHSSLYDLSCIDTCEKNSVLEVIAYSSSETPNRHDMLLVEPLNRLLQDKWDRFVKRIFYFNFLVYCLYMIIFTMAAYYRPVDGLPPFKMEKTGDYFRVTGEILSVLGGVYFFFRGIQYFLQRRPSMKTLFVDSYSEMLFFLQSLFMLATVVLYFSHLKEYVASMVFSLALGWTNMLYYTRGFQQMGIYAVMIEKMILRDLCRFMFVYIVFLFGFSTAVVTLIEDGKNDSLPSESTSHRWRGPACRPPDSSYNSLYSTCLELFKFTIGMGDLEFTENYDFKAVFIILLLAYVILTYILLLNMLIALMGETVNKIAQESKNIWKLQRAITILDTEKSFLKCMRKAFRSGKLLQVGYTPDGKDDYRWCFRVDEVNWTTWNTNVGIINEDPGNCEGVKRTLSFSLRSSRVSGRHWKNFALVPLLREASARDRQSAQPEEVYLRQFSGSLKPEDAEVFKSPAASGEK
As to the kind of experiment: TRPV1 activation on HEK 293 cells, Fluo-4 calcium imaging. The class given is cell-based. The protocol:
HCT 116 cells were grown in Dulbecco’s […] medium (DMEM) supplemented with 10% fetal bovine serum (FBS), 1% nonessential amino acids (NEAA), and maintained at 37 °C and 5% CO2. HEK 293 cells stably expressing TRPV1 channels were grown as previously described.[62]
HEK 293 cells (stably expressing TRPV1 channels) were plated on a 35 mm glass-bottom dish (previously coated with poly-D-Lysine) a day before the experiment. A mixture of pluronic F-127 (Molecular Probes) and Fluo-4 AM (50 μg, Life Technologies) dissolved in dimethylsulfoxide (DMSO) (50 μL) was added to Hank’s balanced salt solution (HBSS) and sonicated for 5 min to prepare a solution containing a 0.02% final concentration of each. The solution was then loaded onto the cells growing in the 35 mm glass-bottom dish and incubated for 35–45 min in a humidified CO2 incubator (37 °C, 5% CO2). The cells were washed with HBSS (3 × 2 mL each) and subsequently maintained in HBSS during photoactivation experiments.
An Olympus FluoView FV1000MPE confocal microscope was employed to image and record cells plated onto 35 mm glass-bottom 4-well plates. A 488 nm ion laser excited the dopamine and serotonin sensors dLight 1.2 and GRAB5-HT, respectively, and Fluo-4 calcium dye. FluoView 10-ASW version 4.0 (Olympus), ImageJ-Fiji, and DeltaGraph (Red Rock Software) were used for capturing, extracting, and processing the collected data. Photoactivation was conducted with 405 nm (100% laser power, 1PE) or 720 nm (10% laser power, 24 mW, 2PE) light for MeO-CyHQ-O-DA and MeO-CyHQ-O-5HT or 740 nm (20% laser power, 15 mW light) for MeO-CyHQ-O-VNA and MeO-CyHQ-O-EG. Images were captured by using a 60× immersion lens.
Solutions of MeO-CyHQ-O-VNA or MeO-CyHQ-O-EG were added to HEK 293 cells stably expressing TRPV1 channels and loaded with Fluo-4 in a 35 mm glass-bottom dish. An area near a cell was irradiated with a single short pulse of 405 nm laser light while imaging with the 488 nm laser. Similarly, VNA and eugenol were released through 2PE using 740 nm light.

The mark [5] stands for this setting: HEK 293 cells expressing TRPV1, exposure to 740 nm light, data not shown.

Converted amounts (≈) assume the structure as drawn. Where two headings read alike, the source gives them in different places.

In the case of `Cc1cc(COc2cc(CCN)ccc2O)nc2c(C#N)c(O)ccc12.O=C(O)C(F)(F)F` [3a, 2-(3-((8-Cyano-7-hydroxy-4-methylquinolin-2-yl)methoxy)-4-hydroxyphenyl)ethan-1-aminium 2,2,2-trifluoroacetate], the “τd (time constant of spontaneous hydrolysis in buffer in the dark at room temperature)” value in series [1] is “nh (No hydrolysis (<5% detected after 7 days))”. In series [2] (aqueous buffer, KMOPS buffer, pH 7.2, read-out: solubility), the solubility is more than 100 µM. Also, in series [3], the “t90% (time required to consume 90% of the starting material)” value is listed as 28.0 s. In series [4], this molecule had a ε365 of 5000 M^–1 cm^–1 and a λmax of 365 nm.
In the case of `N#Cc1c(O)ccc2c(N3CCOCC3)cc(COc3cc(CCN)ccc3O)nc12.O=C(O)C(F)(F)F` [3b, 2-(3-((8-Cyano-7-hydroxy-4-morpholinoquinolin-2-yl)methoxy)-4-hydroxyphenyl)ethan-1-aminium 2,2,2-trifluoroacetate], the “τd (time constant of spontaneous hydrolysis in buffer in the dark at room temperature)” value in series [1] is “nh (No hydrolysis (<5% detected after 7 days))”. The solubility in series [2] (pH 7.2, aqueous buffer) is more than 100 µM. For the same molecule, in series [3], the “t90% (time required to consume 90% of the starting material)” value was determined as 23.2 s. Further, the “irradiation time to complete the 1PE photolysis reaction” value in series [3] (365 nm) is listed as “less than 1 min”. In series [4], this molecule came in with a ε365 of 4900 M^–1 cm^–1 and a λmax of 358 nm.
For the molecule `Cc1ccc(-c2cc(COc3cc(CCN)ccc3O)nc3c(C#N)c(O)ccc23)cc1.O=C(O)C(F)(F)F` [3d, 2-(3-((8-Cyano-7-hydroxy-4-(p-tolyl)quinolin-2-yl)methoxy)-4-hydroxyphenyl)ethan-1-aminium 2,2,2-trifluoroacetate], in series [1], the “τd (time constant of spontaneous hydrolysis in buffer in the dark at room temperature)” value is recorded as “nh (No hydrolysis (<5% detected after 7 days))”. Also, the solubility entry is “slightly lower solubility” in series [2] (pH 7.2) and 85 µM in series [2] (pH 7.2, aqueous buffer). The “t90% (time required to consume 90% of the starting material)” value in series [3] is recorded as 76.7 s. The molecule further gave a ε365 in series [4] of 4800 M^–1 cm^–1. Besides, the λmax in series [4] was found to be 372 nm.
For `COc1cc(-c2cc(COc3cc(CCN)ccc3O)nc3c(C#N)c(O)ccc23)cc(OC)c1OC.O=C(O)C(F)(F)F` [3e, 2-(3-((8-Cyano-7-hydroxy-4-(3,4,5-trimethoxyphenyl)quinolin-2-yl)methoxy)-4-hydroxyphenyl)ethan-1-aminium 2,2,2-trifluoroacetate], the “τd (time constant of spontaneous hydrolysis in buffer in the dark at room temperature)” value in series [1] is “nh (No hydrolysis (<5% detected after 7 days))”. Further, the solubility in series [2] (pH 7.2, aqueous buffer) is more than 100 µM. For the same molecule, the “t90% (time required to consume 90% of the starting material)” value in series [3] is on record as 188.7 s. In series [4], this molecule registered a ε365 of 5210 M^–1 cm^–1 and a λmax of 372 nm.
For `CCCN(CCc1cccs1)[C@@H]1CCc2c(cccc2OCc2cc(OC)c3ccc(O)c(C#N)c3n2)C1` [5c, (R)-7-Hydroxy-4-methoxy-2-(((6-(propyl(2-(thiophen-2-yl)ethyl)amino)-5,6,7,8-tetrahydronaphthalen-1-yl)oxy)methyl)quinoline-8-carbonitrile] the same measures were “nh (No hydrolysis (<5% detected after 7 days))”, more than 100 µM, 143.9 s, 2300 M^–1 cm^–1 and 343 nm.
As for `CCCCCCCCC(=O)NCc1ccc(OCc2cc(OC)c3ccc(O)c(C#N)c3n2)c(OC)c1` [6c, N-(4-((8-Cyano-7-hydroxy-4-methoxyquinolin-2-yl)methoxy)-3-methoxybenzyl)nonanamide], the “τd (time constant of spontaneous hydrolysis in buffer in the dark at room temperature)” value in series [1] is reported as “nh (No hydrolysis (<5% detected after 7 days))”. The molecule further showed a solubility in series [2] (pH 7.2, aqueous buffer) of 77 µM (≈ 38.9 µg/mL). Moreover, the “t90% (time required to consume 90% of the starting material)” value in series [3] worked out at 23.1 s. In series [4], this molecule showed a ε365 of 3375 M^–1 cm^–1 and a λmax of 341 nm. Further, at TRPV1 channels (HEK 293 cells expressing TRPV1, 2.5 μM, 50 ms pulse of 405 nm light), the “Fluo-4 calcium response after photoactivation (1PE)” value is “robust response”. At TRPV1 channels (HEK 293 cells expressing TRPV1, 5 μM, 250 ms pulse of 740 nm light), the “Fluo-4 calcium response after photoactivation (2PE)” value (from here on “Fluo-4 calcium response … (2PE)”) was “robust response”.
With `C=CCc1ccc(OCc2cc(OC)c3ccc(O)c(C#N)c3n2)c(OC)c1` [7c, 2-((4-Allyl-2-methoxyphenoxy)methyl)-7-hydroxy-4-methoxyquinoline-8-carbonitrile], the “τd (time constant of spontaneous hydrolysis in buffer in the dark at room temperature)” value in series [1] is given as “nh (No hydrolysis (<5% detected after 7 days))”. In series [2] (pH 7.2, aqueous buffer), this molecule yielded a solubility of more than 100 µM. Moreover, the “t90% (time required to consume 90% of the starting material)” value in series [3] amounted to 19.5 s. In series [4], this molecule gave a ε365 of 7540 M^–1 cm^–1 and a λmax of 351 nm. For the same molecule, the “Fluo-4 calcium response after photoactivation (1PE)” value at TRPV1 channels (HEK 293 cells expressing TRPV1, 5 μM, 500 ms pulse of 405 nm light) is listed as “EG was released”. Besides, the “Fluo-4 calcium response … (2PE)” value at TRPV1 channels (HEK 293 cells expressing TRPV1, 5 μM, 500 ms pulse of 740 nm light) is “sufficient response”.
Take `C=CCc1ccc(OCc2ccc3ccc(O)c(C#N)c3n2)c(OC)c1` [CyHQ-EG, reference compound]: the “Fluo-4 calcium response … (2PE)” value at TRPV1 channels (setting [5]) was “did not induce any response”.
`CCCCCCCCC(=O)NCc1ccc(OCc2ccc3ccc(O)c(C#N)c3n2)c(OC)c1` [CyHQ-VNA, reference compound]: the “Fluo-4 calcium response … (2PE)” value at TRPV1 channels (setting [5]) is “did not induce any response”.
`CCCCCCCCC(=O)NCc1ccc(O)c(OC)c1` [VNA, N-vanillyl-nonanoylamide, reference compound]: on TRPV1 channels (inferred from concentration and pulse duration needed for release, 405 nm), the “relative potency as activator of TRPV1 channels (VNA versus EG)” value is “more potent activator of TRPV1 channels”.

In general, solubility refers to the dissolved amount per volume that the medium holds.
